# Laboratory results published in patent US7563862B2, “Neural regeneration peptides and methods for their use in treatment of brain damage” (Neuren Pharmaceuticals Limited, priority 2001, dated 2009).
# “Also recorded” adds a separate entry of the source. Ends that are not written are not given here.
# B1: NRP-9: rat ortholog of mouse NRP-7 (protein)
# chain: MLKLNEPKPGVVTSEELTGSGIWSSASGPNCSQHRDGEDGGCGRFINLAGNRTQRGCFPEAFPLLQAEPAEYGGPRSGHRLLRGSRGSEPEARRAQGGQIPSERVLSD
# modifications: RAT
# Experiments:
# cerebellar microexplants [1] = conditions: AT2 receptor agonist, 96 hours after start of cultivation (Cote et al., 1999); cited from earlier work
# MEB-5 cells = assay: haptotactic migration assay, MEB-5 cells; format: cell-based, mouse; conditions: 10 ng/ml coating, 200,000 cells
# Description: (§1) NRPs were tested for migration-inducing/chemoattractive activity on mouse neural stem cells, EGF-dependent immortalized mouse neural stem cell line MEB5 and wild-type PC-12 cells in a haptotactic migration assay as described below.
# (§2) Initial NRP Coating. Control wells of Transwell plates (Coming) with 12 μm pore size were coated in 1.5 ml of the BSA/PBS vehicle. Remaining plates were coated using various concentrations of NRPs ranging between 1-100 ng/ml (prepared in PBS containing 10 ug/ml BSA). The plates were then incubated at 37° C. for 1 hr to coat. Wells were then rinsed 2× with 1 ml sterile PBS.
# (§3) Laminin ([…]) for MEB-5 cells, PDL (50 μg/ml)+Matrigel for mouse primary stem cells and fibronectin (25 ug/ml)+matrigel for PC-12 cells were used as extracellular matrix (ECM) coating for the cells. All ECM compounds were diluted in PBS. 1.5 ml of the ECM per well was incubated for 2 hrs at room temperature. The wells were then rinsed once with Iml serum-free media (e.g. NB/B27) followed by 1 ml PBS wash.
# (§4) A 5 ug/mL PDL/PLL mixture (in PBS) was used to coat inserts. Subsequently the inserts were rinsed with MilliQ water. […]
# wild-type PC-12 cells = assay: haptotactic migration assay, PC-12 cells; format: cell-based; conditions: 50 ng/ml coating, 200,000 cells
# Description: as §1, §2, §3, §4
# mouse neural stem cells = assay: haptotactic migration assay, mouse neural stem cells; format: cell-based
# Description: as §1, §2, §3
# A 5 ug/mL PDL/PLL mixture (in PBS) was used to coat inserts. Subsequently the inserts were rinsed with MilliQ water.
# Transferring to Media and Cell Seeding: Appropriate medium (MEB-5 cells: DMEM-high glucose+N2 (growth medium supplement from Invitrogen)+10 ng/biotin+2 mM L-glutamine, primary stem cells: NSA-medium from Euroclone and for PC-12 cells: NB/B27 medium) was transferred into the 12-well plates. […] Plates were fixed at 1-2 days in vitro (DIV).
# Fixation: Inserts were discarded and wells fixed in successive dilutions of PFA (0.4, 1.2, 3 and 4%) for 3-5min in each dilution. […] The wells were rinsed and stored in PBS until counting.
# A haptotactic migration assay was performed according to the description of Example 10 using rat NRP-9SD (SEQ ID NO:34) (4 nM) and mouse NRP-7SW (SEQ ID NO:24) (0.4 nM) as attractants in a Boyden chamber
# hypoxic-ischemic injury = hypoxic-ischemic injury (HI) in adult rats, histological tissue damage score; format: in vivo, rat; conditions: five days after insult; for neuroprotection: ICV 2 hrs after hypoxia
# Description: To test the efficacy of NRPs in vivo studies were carried out in rats that had been exposed to hypoxic-ischemic injury (HI). Adult rats (50 days old, Wistar, 250-300 g, male) were used. The modified Levine model preparation and experimental procedures were used (Rice et al, 1981, Ann. Neurol. 9: 131-141; Guan et al J., 1993, Cereb. Blood Flow Metab.: 13(4): 609-16). These procedures in brief, consist of an HI injury induced by unilateral carotid artery ligation followed by inhalational asphyxia in the animals with an implanted lateral ventricular cannula. A guide cannula was stereotaxically placed on the top of the dura 1.5 mm to the right of the mid-line and 7.5 mm anterior to the interaural zero plane under halothane anaesthesia. The right carotid artery was double ligated two days after the cannulation. After a 1-hour recovery period from anaesthesia, each of the rats was placed in an incubator where the humidity (90±5%) and temperature ([…]) were controlled for another hour, and then each of the rats was exposed to hypoxia (6% oxygen) for 10 min. The animals were kept in the incubator for an additional 2 hours before treatment.
# Rats were treated intracerebral ventricularly (icv) with 5 nM (n=12), 50 nM (n=12) or 500 nM of NRP-4 segment PQ (PGRAEAGGQ; SEQ ID NO:43) dissolved in saline, or vehicle (n=10) (normal saline) 2 hours after hypoxic-ischemic insult.
# Histological examination was performed on rats 5 days after the hypoxic-ischemic injury. The rats were killed with an overdose of sodium pentobarbital and were perfused transcardially with normal saline followed by 10% formalin. The brains were kept in the same fixative for a minimum of 2 days before being processed using a standard paraffin imbedding procedure.
# Coronal sections 8 μm in thickness were cut from the striatum, cerebral cortex and hippocampus and were stained with thionin and acid fuchsin. The severity of tissue damage was scored in the striatum, cortex and the CA1-2, CA3, CA4 and dentate gyrus of the hippocampus. […]
# cerebellar microexplants [2] = assay: cerebellar microexplants, oxidative stress by 0.1 mM hydrogen peroxide; format: cell-based; conditions: 48 hrs
# Description: In this series of experiments, we studied whether NRP-4 Segment PQ (“NRP-4 PQ”) was able to protect cerebellar microexplanted cells from oxidative injury. We exposed cells to vehicle, 0.1 mM hydrogen peroxide or different concentrations of NRP-4 PQ in vehicle. […] Although the mechanism for this potentiation of neurite outgrowth is uncertain, it may relieve the stresses associated with creating or maintaining the microexplants themselves.
# cerebellar microexplants [3] = assay: cerebellar microexplant survival assay, 3-NP/glutamate injury; format: cell-based, rat
# Description: Toxicological and drug administration experiments were designed such that 1/100 parts of toxin and neuroprotective drug were administered simultaneously to the freshly prepared cerebellar microexplants derived from P-4 or P8 rats. Glutamate was prepared as a 50 mM stock solution in MilliQ water while 50 mM 3-nitropropionic acid was pH-adjusted (pH 6.8-7.2) in MilliQ water. The concentrations of the oxidative stress inducing toxin, 3-nitropropionic acid (3-NP), and the excitotoxin, glutamate, in the assay were 0.5 mM each. Lyophilized peptides were reconstituted in PBS or 100 μg/ml human transferrin as a 10 μM stock solution. Subsequently, serial dilutions were made. Cerebellar microexplants were cultivated for 48-72 hours at 34° C., 5% CO2 in air and 100% humidity before they were fixed by increasing amounts of paraformaldehyde (0.4%, 1.2%, 3% and 4%—each treatment 2-3 min).
# For statistical analysis of survival, four fields (each field having an area of 0.65 mm^2) of each fixed cerebellar culture with the highest cell densities were chosen, and cells displaying neurite outgrowth were counted. Statistical significance was measured by Student's t-test.
# Laminated cerebellar cortex was extracted from P3/4, P7/8 rat pups and triturated through gauze having a 125 μm pore size to obtain uniformly sized microexplants. After centrifugation for 3 minutes at 61 g and the pellet was resuspended in StartV medium (Biochrom) and the suspension seeded on poly-D-lysine coated coverslips in 6-well plates and incubated for 3 hrs to allow adherence, before 1 ml StartV per well was added. As described previously, glutamate/3-NP and NRP were also added. The explants are cultivated at 34° C. at 5% CO2 and 100% humidity for 48-72 hrs. BrdU was administered at start of cultivation for proliferation rate measurements and cells are counted per microscopic field after 48-72 hrs.
# Cerebellar Microexplants were prepared as described in Example 9 with the addition of SDF-1 as described, in addition to glutamate/3-NP, and NRP.
# Cerebellar microexplants were prepared as described in Example 9 with the addition of SDF-1, Wortmannin and PD98059 (both Calbiochem), as described, in addition to glutamate/3-NP, and NRP.
# [4] = system: embryonic cerebellar microexplants; assay: neural cell proliferation in embryonic cerebellar microexplants; format: cell-based
# Excerpt: In another set of studies, we determined effects of NRP-5 RG on induction of neural cell proliferation in embryonic cerebellar microexplants as described herein.
# [5] = system: OTCs of rat embryonic forebrain; assay: embryonic forebrain OTC migration assay (medial ganglionic eminence to cortical anlage); format: cell-based
# Description: OTCs of rat embryonic forebrain were prepared as described. Briefly, pregnant rats at E17 gestation were sacrificed, the fetuses rapidly removed. Coronal slices of the forebrain were cut at 400 μm thickness and placed onto millicell PICM ORG50 membranes (Millipore) in 3 cm Petri dishes containing 1 ml of DMEMI/F12, 6.5 mg/ml glucose, 0.1 mM glutamine and 10% FCS for 34 hrs. Afterwards the medium was exchanged to 1 ml Neurobasal/B27, 6.5 mg/ml glucose, 0.1 mM glutamine, to which 10 μl PBS, NRP, or SDF-1 were added for the indicated concentrations and a small DiI (1,1′-dioctodecycyl-3,3,3′3-tetramethylindocarbocyanine) crystal of uniform size was placed in the medial ganglionic eminence (n=10-15) under a stereomicroscope. After 24 hrs cultivation the total number or migrated neurons dispersed in the ganglionic eminence and cortex were counted under an inverted fluorescent microscope.
# neural stem cells = assay: neural stem cell differentiation assay, neuronal differentiation and axonal outgrowth; format: cell-based, mouse; conditions: together with BrdU for 24 hrs
# Description: Neural stem cells were derived from E15 C3H mice forebrain and cultured as neurospheres in the presence of 20 ng/ml EGF and 10 ng/ml bFGF as described in Gritti et al. (2001). Briefly, timed pregnant mice were sacrificed and the embryos removed. Under sterile conditions the brains were removed and the forebrains dissected. The tissue was dissociated by trituration and pelleted by 75 g centrifugation for 10 minutes and the cells seeded in non-coated tissue culture flasks in NSA medium with growth factors. For passaging neurospheres were triturated and seeded as single cells.
# Upon reaching a sufficient size, neurospheres were dissociated by trituration and plated at a density of 200,000 cells per well on laminin-coated 13 mm diameter coverslips that had been placed in Nunc 24 well plates. The plating medium was a 1:1 mixture of DMEM/F12 supplemented with N2 and Neurobasal supplemented with B27 and 2 mM glutamine. To enhance survival after plating the medium contained 2 ng/ml bFGF. After 24 h the medium was replaced with a neuronal differentiation-promoting medium (1:3 mixture of DMEM/F12 supplemented with N2 and Neurobasal supplemented with B27 and 2 mM glutamine) and except for the controls the test compound or IGF-1 was added simultaneously. The medium with fresh compound was exchanged every other day. Seven days after plating the differentiating cells were incubated for 20 minutes in differentiation medium containing 100 ng/ml Syto21 to label the nuclei of viable cells. Subsequently, they were fixed with 4% paraformaldehyde and immunostained with a mouse anti-βIII tubulin antibody and a goat anti-mouse Cy3-coupled secondary antibody.
# After staining the coverslips were removed from the tissue culture plate and mounted on […], using Immunofluore fluorescent mounting medium. To analyse the percentage of neurons of total cells, with a Zeiss axiophot microscope, equipped with Axoivision software, at 20× magnification images of two random fields per well were taken in the red (tubulin stained neurons) and green (Syto21 stained nuclei) fluorescent channel. Neurons and nuclei per field were counted and the neuronal percentage of total cell number determined.
molecule,measurement,setting,value
CGP-42112,longest migration distances,cerebellar microexplants [1],around 550 im
"GTPGRAEAGGQVSPCLAASCSQAYG-NH2 (cysteine pairing not given here) [NRP-4 GG, 25-mer fragment of NRP-4]",more MEB-5 cells migrated compared with BSA-vehicle,MEB-5 cells,195%
same,more PC-12 cells migrated compared with BSA vehicle,wild-type PC-12 cells,80.8%
same,more E14 cells migrated compared with BSA-vehicle,"mouse neural stem cells; 10 ng/ml coating, 200,000 cells",93.7%
"PGRAEAGGQ-NH2 [NRP-4 segment PQ, 9-mer of NRP-4]",neuroprotection within all analysed brain regions,hypoxic-ischemic injury; 9 ng/20 μl icv 2 hrs after hypoxia,100%
same,neuroprotection,hypoxic-ischemic injury,substantial neuroprotection in all analysed brain regions
same,neuroprotection,cerebellar microexplants [2],even greater than that of control explants receiving no peroxide
"REGRRDAPGRAGG-NH2 [NRP-5 segment RG, 13-mer fragment of NRP-5]",higher neuroprotection than SEQ ID NO:46,cerebellar microexplants [3],20%
same,times higher potency than SEQ ID NO:46,cerebellar microexplants [3],10^6 to 10^7 times
same,neuroprotection,hypoxic-ischemic injury,substantial neuroprotection in all analysed brain regions
same,concentration of maximal proliferation-inducing activity,[4],100 pM
same,greater chemoattractive effect than control (BSA-containing) medium,mouse neural stem cells,42.1%
"SDF-1: chemokine stromal-derived factor, 63 amino acid long mature human SDF-1 [reference compound]",neuroprotection compared to NRP,cerebellar microexplants [3],narrow dose range of efficacy; also recorded: only a limited neuroprotective effect
same,neuroprotection,"cerebellar microexplants [3]; 10 nM, 0.5 mM 3-NP/glutamate 48 hrs",less than 30%
same,potency compared to NRP,[5],far less potent than NRP
same,number of cells attracted,mouse neural stem cells; 100 nM coating,"attracted a similar number of cells, as did the 0.4 nM mouse NRP-7SW"
B1,proliferation rate during differentiation of NSC,neural stem cells,an increase in the proliferation rate
